Assay results reported in publication PMC10644327, “A randomized, double‐blind phase 1b study evaluating the safety, tolerability, pharmacokinetics and pharmacodynamics of the NLRP3 inhibitor selnoflast in patients with moderate to severe active ulcerative colitis” (Clinical and Translational Medicine, 2023).
Like-named read-outs stand apart in the source and are kept apart here.

Legend:
[1] = Selnoflast plasma pharmacokinetics in UC patients (LC‐MS/MS, non‐compartmental); type: in vivo, human; settings: for Tmax / concentration at 24 h / Cmax / half-life / AUC: 450 mg; for concentration at 24 h: read-out: Ctrough
Method: Selnoflast (450 mg QD or matching placebo) was administered orally in the morning following an overnight fast of at least 8 h during the patients’ 7‐day clinic stay. Water intake was restricted for 1 h pre‐dose and 1 h post‐dose, and no food was allowed until at least 4 h post‐dose.
The concentrations of selnoflast were determined in a total of 260 human plasma samples (obtained during the study) using a validated liquid chromatography‐tandem mass spectrometry (LC‐MS/MS) method. Sample analysis was performed after the addition of the internal standard by protein precipitation followed by LC‐MS/MS. The calibration range was between 40.0 ng/mL and 40000.0 ng/mL; the lower limit of quantification in human plasma was 40.0 ng/mL. Study samples were analyzed within the validated frozen storage stability timeframe of 371 days at −20°C and −70°C, the five validated freeze/thaw cycles, and proven room temperature storage stability of 24 h, in a total of six analytical runs. Five out of six runs met the acceptance criteria. The precision and accuracy (expressed as %RE) of the assay, as determined from the analysis of quality control samples, was satisfactory throughout the study.
All randomized patients were included in the intent‑to‑treat population. All patients completed all doses of study treatment and all were included in the safety, PK and PD analyses. Safety data were grouped according to treatment received and were tabulated and/or listed, as appropriate. PK parameters (including Tmax, Cmax, Ctrough, total exposure, drug accumulation, clearance, volume of distribution and T1/2) were extrapolated directly from the plasma concentration‐versus‐time profiles or calculated using standard non‐compartmental methods. PK and PD parameters were summarized and presented descriptively.

[2] = test system: IL‐1β release in whole blood; experiment: Inhibition of IL‐1β release in whole blood upon ex vivo stimulation with LPS (TruCulture), UC patients; design: species or system human; settings: for Inhibition of IL‐1β release compared to baseline: 450 mg
Method: Blood samples were drawn pre‐dose and at various timepoints and placed in TruCulture whole blood collection and culture tubes that were pre‐filled with lipopolysaccharide (LPS) (final working concentration of 100 ng/mL LPS after addition of 1 mL of blood to the LPS‐containing Truculture tubes). Following 24 h incubation, TruCulture supernatants were collected, stored, and levels of secreted IL‐1β were subsequently measured in order to understand how these responded to NLRP3 inhibition by selnoflast. The levels of IL‐1β were also quantified in plasma K2EDTA samples using the same SIMOA IL‐1β Assay Kit (Quanterix). The quantitative range of the method was 0.196 to 490 pg/mL for plasma and 4.01 to 1470 pg/mL in Truculture supernatants. Plasma samples were also assessed for IL‐18, using a commercial SIMOA IL‐18 Assay Kit (Quanterix; the quantitative range for plasma was 0.0200–45.0 pg/mL).

[3] = Safety and tolerability in patients with ulcerative colitis; type: in vivo, human
Description: The primary objective of this study was to evaluate the PK, safety, and tolerability of selnoflast. The main endpoints were the incidence and severity of adverse events (AEs), changes in vital signs, 12‐lead electrocardiogram (ECG) parameters, and clinical laboratory safety parameters. AEs were monitored throughout the study and at the 14‐day follow‐up visit. Safety assessments included recording of the incidence and type of treatment‐emergent adverse events (TEAEs), discontinuations, serious TEAEs, and adverse events of special interest (AESIs) (including cases of elevated alanine aminotransferase [ALT] or aspartate aminotransferase [AST] in combination with either elevated bilirubin or clinical jaundice). Vital signs, ECGs, blood chemistry and hematology panels, coagulation panels and urinalysis were assessed at screening and at various time points during the study. Changes in absolute lymphocyte count were also assessed. Blood samples for PK analyses were obtained pre‐dose and at various timepoints up to 24 h post‐dose throughout the 7‐day in‐clinic treatment period, as well as once during the 14‐day follow‐up visit. As the 1‐week duration of the study was too short for assessing clinical changes, no clinical assessments were planned. Further details are given in the study protocol (Supporting Information).

Caspase‐1 = Caspase‐1 (pro and active form) WES‐assay in sigmoid colon tissue; type: in vivo, human; settings: after 7 days’ treatment
Method: Tissue biopsies from the sigmoid colon were obtained before start of treatment (up to Day −3) and at the end of treatment (Day 7). For operational reasons, biopsies were taken 2−4.5 h post‐dose on Day 7. Stool samples were obtained at screening, before start of treatment, throughout the study, and at the 14‐day follow‐up visit. Levels of calprotectin were determined in stool samples. Sigmoid colon tissue was processed for RNA and DNA extraction as well as for single‐cell analysis, subsequent transcriptomic analysis, and identification of PD biomarkers. Sigmoid colon tissue samples were also processed for histology (hematoxylin and eosin staining, immunohistochemistry, fluorescence in situ hybridization) in order to characterize the cell types present (i.e., neutrophils and inflammatory monocytes). Histological analysis was performed on sigmoid colon tissue samples (from baseline and Day 7) using the disease‐specific histological indices Geboes score[23] and Nancy index.[24] Caspase‐1 (pro and active form) was assessed using a validated WES‐assay (manuscript in preparation).

[4] = test system: IL‐1β release in activated human monocyte‐derived macrophages; design: method as in unpublished results; settings: in vitro, ref unpublished results; cited from earlier work
NLRP3 inflammasome = test system: NLRP3 inflammasome; design: method as in RO7486967 Investigator Brochure; settings: ref RO7486967 Investigator Brochure; cited from earlier work
[5] = cited from earlier work; for Tolerability: healthy subjects, single doses 20-600 mg and multiple doses up to 450 mg QD for 7 days, ref unpublished results, study IZD334-001
[6] = 450 mg QD repeat dosing, UC patients
[7] = human, plasma, po, 450 mg QD oral, fasted, UC patients N = 13, Day 1, geometric mean (CV% geo mean)
[8] = human, plasma, po, 450 mg QD oral, fasted, UC patients N = 13, steady‐state (Day 5), geometric mean (CV% geo mean)

**Q.** Which Ctrough ([1]; 450 mg QD oral, fasted, UC patients N = 13, Day 1 (Clast, 24 h), geometric mean (CV% geo mean)) does the source give for `CCN1CCC(S(=O)(=O)NC(=O)Nc2c3c(cc4c2CCC4)CCC3)CC1` [Selnoflast, selnoflast] here?
**A.** 2.55 (38.8) μg/mL

**Q.** What about the CL/F ([1]; 450 mg QD oral, fasted, UC patients N = 13, Day 1, geometric mean (CV% geo mean)) of the same compound?
**A.** 1.82 (17.5) L/h

**Q.** What about the Ctrough ([1]; 450 mg QD oral, fasted, UC patients N = 13, steady‐state (Day 5) (Clast, 24 h), geometric mean (CV% geo mean)) of the same compound?
**A.** 2.66 (46.6) μg/mL

**Q.** And the CL/F ([1]; 450 mg QD oral, fasted, UC patients N = 13, steady‐state (Day 5), geometric mean (CV% geo mean))?
**A.** 1.68 (21.0) L/h

**Q.** And the “Accumulation: increase in AUCtau from Day 1 to Day 5” value [1, 6]?
**A.** 8.6%

**Q.** What about the “Accumulation: increase in Clast from Day 1 to Day 5” value [1, 6] of the same compound?
**A.** 4.3%

**Q.** What about the “Accumulation: increase in Cmax from Day 1 to Day 5” value [1, 6] of the same compound?
**A.** 17%

**Q.** And the “Steady‐state achieved” value ([1]; 450 mg QD, UC patients)?
**A.** Day 2

**Q.** What about the Tmax ([1]; human, plasma, oral, UC patients in the present study, read-out: Median Tmax) of the same compound?
**A.** 1 to 2 h

**Q.** What about the concentration at 24 h ([1]; human, plasma, po, 450 mg QD oral, fasted, UC patients N = 13, Day 1 (Clast, 24 h), geometric mean (CV% geo mean)) of the same compound?
**A.** 2550 ng/mL

**Q.** And the Cmax [1, 7]?
**A.** 25000 ng/mL

**Q.** What about the half-life [1, 7] of the same compound?
**A.** 6.9 h

**Q.** What about the AUC ([1]; human, plasma, po, 450 mg QD oral, fasted, UC patients N = 13, Day 1, geometric mean (CV% geo mean), read-out: AUC0‐inf) of the same compound?
**A.** 275 µg·h/mL

**Q.** What about the AUC ([1]; human, plasma, po, 450 mg QD oral, fasted, UC patients N = 13, Day 1, geometric mean (CV% geo mean), read-out: AUCtau) of the same compound?
**A.** 247 µg·h/mL

**Q.** And the Tmax ([1]; human, plasma, po, 450 mg QD oral, fasted, UC patients N = 13, Day 1, median (range), read-out: Tmax)?
**A.** 1.97 h

**Q.** What about the concentration at 24 h ([1]; human, plasma, po, 450 mg QD oral, fasted, UC patients N = 13, steady‐state (Day 5) (Clast, 24 h), geometric mean (CV% geo mean)) of the same compound?
**A.** 2660 ng/mL

**Q.** And the Cmax [1, 8]?
**A.** 29300 ng/mL

**Q.** What about the half-life [1, 8] of the same compound?
**A.** 6.93 h

**Q.** What about the AUC ([1]; human, plasma, po, 450 mg QD oral, fasted, UC patients N = 13, steady‐state (Day 5), geometric mean (CV% geo mean), read-out: AUCtau) of the same compound?
**A.** 268 µg·h/mL

**Q.** What about the Tmax ([1]; human, plasma, po, 450 mg QD oral, fasted, UC patients N = 13, steady‐state (Day 5), median (range), read-out: Tmax) of the same compound?
**A.** 1 h

**Q.** What about the Vd/F ([1]; human, plasma, 450 mg QD oral, fasted, UC patients N = 13, Day 1, geometric mean (CV% geo mean), read-out: Vz/F) of the same compound?
**A.** 18.1 L

**Q.** And the “Inhibition of IL‐1β release compared to baseline” value ([2]; Day 1, from 30 min until at least 10 h post‐dose, mean (± SD))?
**A.** > 95%

**Q.** What about the inhibition at 450 mg ([2]; Homo sapiens, at trough (25–100 h post‐dose), 450 mg QD, read-out: Inhibition of IL‐1β release compared to baseline) of the same compound?
**A.** ~90%

**Q.** And the “Inhibition of IL‐1β release compared to baseline” value ([2]; just before the next administration on Day 2, mean (SD))?
**A.** 91.2%

**Q.** What about the Deaths ([3]; N = 13) of the same compound?
**A.** 0

**Q.** And the “Patients with at least one AE with fatal outcome” value ([3]; N = 13)?
**A.** 0

**Q.** What about the “AEs considered treatment‐related” value ([3]; human, in vivo, 7 days) of the same compound?
**A.** 23.1%

**Q.** What about the “Dyspepsia, patients” value ([3]; human, in vivo, 7 days) of the same compound?
**A.** 15.4%

**Q.** And the “Headache, patients” value ([3]; human, in vivo, 7 days)?
**A.** 15.4%

**Q.** What about the “Patients with at least one AE leading to dose modification/interruption” value ([3]; human, in vivo, 7 days) of the same compound?
**A.** 0

**Q.** And the “Patients with at least one AE leading to withdrawal from treatment” value ([3]; human, in vivo, 7 days)?
**A.** 0

**Q.** What about the “Patients with at least one Related AE” value ([3]; human, in vivo, 7 days) of the same compound?
**A.** 3 (23.1%)

**Q.** And the “Patients with at least one Related AE leading to dose modification/ interruption” value ([3]; human, in vivo, 7 days)?
**A.** 0

**Q.** What about the “Patients with at least one Related AE leading to withdrawal from treatment” value ([3]; human, in vivo, 7 days) of the same compound?
**A.** 0

**Q.** What about the “Patients with at least one Serious AE” value ([3]; human, in vivo, 7 days) of the same compound?
**A.** 0

**Q.** What about the “Patients withdrawn from study due to AE” value ([3]; human, in vivo, 7 days) of the same compound?
**A.** 0

**Q.** And the “Severity of AEs” value ([3]; human, in vivo, 7 days)?
**A.** mild (Grade 1), with the exception of one AE of Grade 2 severity

**Q.** And the “Caspase‐1 (pro‐ and active forms) change” value (Caspase‐1)?
**A.** did not show marked changes

**Q.** And the “Inhibition of IL‐1β release” value [4]?
**A.** potent inhibitor

**Q.** And the “Effect on IL-1β release and cell death in vitro” value (NLRP3 inflammasome)?
**A.** inhibit IL-1β release and cell death in vitro

**Q.** What about the “Bacterial, viral, fungal, and other opportunistic infections” value ([5]; HVs in the Phase I clinical study, ref Investigator Brochure) of the same compound?
**A.** No evidence

**Q.** What about the “Healthy volunteers with mild transaminase increase” value ([5]; MAD part, volunteers who received RO7486967, no clear dose dependency, not clinically significant, ref Study IZD334-001) of the same compound?
**A.** 4 out of 18

**Q.** What about the Tolerability [5] of the same compound?
**A.** well tolerated

**Q.** What about the Tolerability ([5]; listed as RO7486967) of the same compound?
**A.** safe and well tolerated
